From ChEMBL document CHEMBL1150861, “Triterpene saponins from Tupidanthus calyptratus” (J Nat Prod, 2001) come the findings set out here.

One series relates to WEHI-164. Put plainly: Antiproliferative activity against mouse WEHI164 cells […] after 72 hrs by MTT assay. The class given is functional, cell-based.
A further series has as its system J774. Put plainly: Antiproliferative activity against mouse J774 cells […] after 72 hrs by MTT assay. The class given is functional, cell-based. In general terms: Tetrazolium assays rely on reduction of a dye to a coloured formazan, in cell work by metabolically active cells.
The next series has as its system HEK293. Put plainly: Antiproliferative activity against HEK293 cells […] after 72 hrs by MTT assay. The class given is cell-based. The note with it: human, hek293, 72 h.

Active and inactive are the calls of the source. No cut-off for these calls is given here.

Turning to `C[C@@H]1O[C@@H](OC[C@H]2O[C@@H](OC(=O)[C@]34CC[C@](C)(O)[C@H](C)[C@H]3C3=CC[C@@H]5[C@@]6(C)CC[C@H](O[C@@H]7OC[C@H](O)[C@H](O[C@@H]8OC[C@@H](O)[C@H](O)[C@H]8O)[C@H]7O)[C@@](C)(CO)[C@@H]6CC[C@@]5(C)[C@]3(C)CC4)[C@H](O)[C@@H](O)[C@@H]2O)[C@H](O)[C@H](O)[C@H]1O`, the outcome with WEHI-164 and in the series on J774 was inactive. For the same compound, the Activity result in the series with HEK293 is “Not Active”.

Regarding `C[C@@H]1[C@H]2C3=CC[C@@H]4[C@@]5(C)C[C@@H](O)[C@H](O[C@@H]6OC[C@H](O)[C@H](O[C@@H]7OC[C@@H](O)[C@H](O)[C@H]7O)[C@H]6O)[C@@](C)(CO)[C@@H]5CC[C@@]4(C)[C@]3(C)CC[C@@]2(C(=O)O[C@@H]2O[C@H](CO[C@@H]3O[C@H](CO)[C@@H](O)[C@H](O)[C@H]3O)[C@@H](O)[C@H](O)[C@H]2O)CC[C@]1(C)O`, the result in the series with WEHI-164 and with J774 was inactive. In addition, in the series with HEK293, the Activity entry is recorded as “Not Active”.

Take `C[C@@H]1[C@H]2C3=CC[C@@H]4[C@@]5(C)C[C@@H](O)[C@H](O[C@@H]6OC[C@H](O)[C@H](O[C@@H]7OC[C@@H](O)[C@H](O)[C@H]7O)[C@H]6O)[C@@](C)(CO)[C@@H]5CC[C@@]4(C)[C@]3(C)CC[C@@]2(C(=O)O[C@@H]2O[C@H](CO)[C@@H](O)[C@H](O)[C@H]2O)CC[C@]1(C)O`: the outcome with WEHI-164 and in the series with J774 was inactive. In addition, in the series with HEK293, the Activity result was “Not Active”.

For the compound `C[C@@H]1[C@H]2C3=CC[C@@H]4[C@@]5(C)C[C@@H](O)[C@H](O[C@@H]6OC[C@H](O)[C@H](O)[C@H]6O)[C@@](C)(CO)[C@@H]5CC[C@@]4(C)[C@]3(C)CC[C@@]2(C(=O)O[C@@H]2O[C@H](CO)[C@@H](O)[C@H](O)[C@H]2O)CC[C@]1(C)O`, the outcome with WEHI-164 and in the series on J774 was inactive. Besides, the Activity entry in the series with HEK293 is given as “Not Active”.
